Measurements reported in patent publication US6780853B1, “Neuroactive steroids of the androstane and pregnane series” (priority 1995, dated 2004).

Columns and labels:
Progesterone Receptors = assay: Inhibition of 3H-Progesterone Binding to the Bovine Uteral Progesterone Receptors; settings: competitor 10^−6M; 3H-progesterone 0.15 nM
[1] = biological target: T1, Mineralocorticoid Receptors (Rattus norvegicus, UniProt P22199); assay: Inhibition of 3H-Aldosterone Binding to Hippocampal Mineralocorticoid Receptors; settings: competitor 10^−6M; 3 nM 3H-aldosterone, RU28362 0.5 μM
T1 construct: To isolate the mineralocorticoid receptor, brain cytosol fractions were prepared; from tissue; host or cells: brain (hippocampal) cytosol of adrenalectomized rats
T1 sequence (P22199 1-981): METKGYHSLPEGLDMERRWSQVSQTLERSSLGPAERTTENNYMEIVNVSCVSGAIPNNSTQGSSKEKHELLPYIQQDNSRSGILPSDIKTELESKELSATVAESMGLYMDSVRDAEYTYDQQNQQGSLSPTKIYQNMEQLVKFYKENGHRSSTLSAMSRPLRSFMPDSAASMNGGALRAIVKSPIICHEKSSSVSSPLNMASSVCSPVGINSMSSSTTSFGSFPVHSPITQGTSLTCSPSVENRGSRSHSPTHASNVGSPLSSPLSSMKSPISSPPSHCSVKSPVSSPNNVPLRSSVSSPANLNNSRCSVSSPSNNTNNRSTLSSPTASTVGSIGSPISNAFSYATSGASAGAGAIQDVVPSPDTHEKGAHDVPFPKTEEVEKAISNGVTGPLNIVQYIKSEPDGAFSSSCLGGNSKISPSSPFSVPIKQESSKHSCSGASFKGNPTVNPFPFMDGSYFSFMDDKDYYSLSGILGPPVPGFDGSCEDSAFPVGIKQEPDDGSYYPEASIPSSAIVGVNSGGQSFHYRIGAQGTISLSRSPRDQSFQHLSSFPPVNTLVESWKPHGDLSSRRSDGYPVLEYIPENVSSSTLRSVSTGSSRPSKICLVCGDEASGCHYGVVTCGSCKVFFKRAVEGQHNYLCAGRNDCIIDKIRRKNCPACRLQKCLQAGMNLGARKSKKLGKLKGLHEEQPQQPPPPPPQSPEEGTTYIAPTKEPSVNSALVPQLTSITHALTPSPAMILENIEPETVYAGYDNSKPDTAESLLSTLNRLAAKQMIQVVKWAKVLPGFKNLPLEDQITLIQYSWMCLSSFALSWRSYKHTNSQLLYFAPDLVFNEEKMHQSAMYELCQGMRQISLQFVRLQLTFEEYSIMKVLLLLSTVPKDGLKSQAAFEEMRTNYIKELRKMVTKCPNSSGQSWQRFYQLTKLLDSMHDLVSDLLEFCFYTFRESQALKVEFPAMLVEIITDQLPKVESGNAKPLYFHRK
Experimental: (§1) Various hormonal activities of representative neuroactive steroids were further studied through testing their potential estrogenic, mineralocorticoid and glucocorticoid activities. These activities were analyzed by monitoring the ability of the compounds to inhibit binding of the steroid hormones to their respective hormone receptors.
In Table 4, rats were adrenalectornized 3 days prior to sacrifice.

Estrogen Receptors = biological target: T2, Estrogen Receptors (Bos taurus, UniProt P49884); assay: Inhibition of 3H-Estradiol Binding to Bovine Uteral Estrogen Receptors; settings: competitor 10^−6M; 3H-estradiol 0.15 nM
T2 construct: from tissue; host or cells: bovine uterus cytosol
T2 sequence (P49884 1-596): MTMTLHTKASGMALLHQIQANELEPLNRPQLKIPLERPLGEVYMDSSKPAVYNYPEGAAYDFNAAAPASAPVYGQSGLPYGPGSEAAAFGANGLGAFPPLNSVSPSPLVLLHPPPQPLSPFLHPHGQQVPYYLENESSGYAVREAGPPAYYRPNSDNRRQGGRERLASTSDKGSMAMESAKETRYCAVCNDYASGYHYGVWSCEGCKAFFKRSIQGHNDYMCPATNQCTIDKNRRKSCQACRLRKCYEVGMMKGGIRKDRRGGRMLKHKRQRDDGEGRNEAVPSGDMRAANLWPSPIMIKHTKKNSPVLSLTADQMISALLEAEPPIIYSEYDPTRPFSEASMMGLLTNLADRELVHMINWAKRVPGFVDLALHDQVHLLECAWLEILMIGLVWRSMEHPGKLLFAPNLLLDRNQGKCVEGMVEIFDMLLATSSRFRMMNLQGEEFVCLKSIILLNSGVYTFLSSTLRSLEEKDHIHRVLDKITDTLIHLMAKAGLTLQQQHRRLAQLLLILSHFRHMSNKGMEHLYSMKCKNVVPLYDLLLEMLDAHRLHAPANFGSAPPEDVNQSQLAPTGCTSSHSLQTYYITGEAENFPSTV
Experimental: as §1

[2] = biological target: GABA receptor complex (GRC); assay: [35S]TBPS binding in rat cerebral cortex P2 homogenate; settings: for IC50: concentration to inhibit 50% of control [35S]TBPS binding, 2 nM [35S]TBPS; for IMAX (maximum inhibition): maximum inhibition of [35S]TBPS binding
Outline: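 Male Sprague-Dawley rat cortical P2 homogenate (0.5 mg protein) incubated with 2 nM [35S]TBPS in 50 mM Na/K phosphate pH 7.4, 200 mM NaCl, with GABA plus (+)bicuculline, 90 min at 25 °C. Filter-bound radioactivity counted; non-specific binding with […]; IC50 and maximal inhibition by nonlinear regression.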

loss-of-righting reflex = assay: Anesthetic activity, loss-of-righting reflex; format: in vivo, mice; settings: iv
Experimental: The compounds of and used in the invention can also be used for anesthetic indications at high doses. However, the preferred route of administration to induce anesthesia is intravenous (i.v.) administration. In animals, a drug's anesthetic properties is measured by the drug's ability to produce a loss-of-righting reflex. The loss-of-righting reflex is defined as the inability of an animal to right itself within 30 seconds when placed on its back. Mice were administered drug i.v. in the lateral tail vein. Following administration, mice were placed on their backs and observed for loss-of-righting reflex.

[3] = system: metrazol induced convulsions; assay: Antimetrazol activity in mice; format: in vivo; settings: IP, 50% hpbcd, 10 mg/kg, 10 min before metrazol 85 mg/kg
Experimental: Experiments were also performed to determine the physiological relevance of neuroactive steroid and GABA receptor interactions by assessing the ability of compounds of the present invention to prevent metrazol induced convulsions in mice. Mice were injected with various doses of the test compounds of the invention, 10 minutes prior to the injection of metrazol. The time to onset of myoclonus (presence of forelimb clonic activity) induced by metrazol was determined by observing each mouse for a period of 30 minutes. In control mice, metrazol (85 mg/kg) will induce convulsion in 95% of the animals.
The anticonvulsant tests are similar to that described above.

[4] = system: time spent on the open-arms; assay: Elevated plus-maze test; format: in vivo, N.I.H. Swiss-Webster mice; settings: IP, 50% hpbcd, 10 mg/kg
Source text: The theoretical basis for the elevated plus-maze test is similar to that of the fight/dark transition test. As it was described previously by Pellow et al. J. Neurosci. Meth. 14:149-167 (1985)), the elevated plus-maze apparatus is designed to utilize the mice's natural aversion to open spaces. The apparatus consists of two open-arms and two enclosed-arms. The elevated plus-maze test allows for two measures of anxiety, the number of entries into the open-arms and the time spent on the open-arms, both expressed as a percentage of the total number of entries and time spent in/on both the open-arms and enclosed-arms.
Male N.I.H Swiss-Webster mice (Harlan, Indianapolis, Ind.) weighing 15-20 g were housed four per cage in polyethylene cages with sawdust bedding. The colony room was environmentally controlled (22° C.) with a 12 hr light/dark cycle (0600-1800 hr). Food and water were available ad libitum, except during testing. The experiments were run from 0700-1500 hr and groups were counterbalanced for time of day effects. Mice were only administered drug or vehicle once.
The method used was previously described (Lister, Psychopharmacol. 92:180-185 (1987)). The apparatus included two open arms perpendicular to two enclosed arms elevated 50 cm from the floor. Each arm was 50 cm long and the walls of the enclosed arms were 40 cm tall. The maze was made completely of black plexiglass. Incandescent 200 W light bulbs were above each of the open arms to produce a strong contrast between the open arms and the enclosed arms.
[…] Swiss-Webster mice were placed in the center of the plus-maze facing an open arm. During the 5 min test period, the number of entries onto the open arms and the enclosed arms, and the time spent in the open arms and enclosed arms were measured. All four paws had to be within an arm for the dependent variable to be measured. Therefore, the time spent in the center of the maze is not counted, so the total time spent in the open arms and the enclosed arms may not equal 5 min.

Compound | % of Inhibition (Progesterone Receptors) | IC50 [2] | IMAX (maximum inhibition) [2] | % Protected [3] | Plus-Maze (% Control), time spent on the open-arms [4] | melting point | also measured
5α-pregnan-3β,20-trimethyl-3α,20-diol | 8% |  |  |  |  |  | % of Inhibition [1]: 0%; % of Inhibition (Estrogen Receptors): 0%
C[C@]12CC[C@@H](O)C[C@@H]1CC[C@@H]1[C@@H]2CC[C@]2(C)[C@@H](C(=O)CO)CC[C@@H]12 [3α,21-Dihydroxy-5α-pregnan-20-one, reference compound] | 13% | 0.076 µM | 100% |  |  |  | 
CC(=O)[C@H]1CC[C@H]2[C@@H]3CC[C@H]4C[C@H](O)CC[C@]4(C)[C@H]3C(=O)C[C@]12C [3α-Hydroxy-5α-pregnan-11,20-dione, reference compound] |  |  |  |  |  |  | Loss-of-Righting Reflex (%) (loss-of-righting reflex; 50% hpbcd, 10 mg/kg): 37.5%
CC(=O)[C@H]1CC[C@H]2[C@@H]3CC[C@H]4C[C@H](O)CC[C@]4(C)[C@H]3CC[C@]12C [3α-Hydroxy-5α-pregnan-20-one, reference compound] | 14% | 0.037 µM | 95% |  |  |  | 
C=C(C)C#CC1(O)CCC2(C)C(CCC3C2CCC2(C)C(OC)CCC32)C1 (stereo not drawn) [3α-Hydroxy-17β-methoxy-3β-(3′-methylbut-3′-en-1′-ynyl)-5β-androstane] |  |  |  | 87.5% |  |  | Loss-of-Righting Reflex (%) (loss-of-righting reflex; 50% hpbcd, 10 mg/kg): 100%
COC1CCC2C3CCC4CC(O)(C(F)(F)F)CCC4(C)C3CCC12C (stereo not drawn) [3α-Hydroxy-17β-methoxy-3β-trifluoromethyl-5β-androstane] [3β-trifluoromethyl-3α-hydroxy-17β-methoxy-5β-androstane] |  | 0.216 µM | 103% | 37.5% | 115 % Control | 122 to 127 °C | Loss-of-Righting Reflex (%) (loss-of-righting reflex; 10% hpbcd, 20 mg/kg): 37.5%
COC1CCC2C3CCC4CC(O)(C(F)(F)F)CCC4C3CCC12C (stereo not drawn) [3α-Hydroxy-17β-methoxy-3β-trifluoromethyl-19-nor-5β-androstane] |  | 0.093 µM | 115% |  | 107 % Control | 40 to 42 °C | Loss-of-Righting Reflex (%) (loss-of-righting reflex; 50% hpbcd, 10 mg/kg): 62.5%
C[C@]12CC[C@@H](O)C[C@@H]1CC[C@@H]1[C@@H]2CC[C@]2(C)[C@@H](C(=O)CSc3ccncc3)CC[C@@H]12 [3α-hydroxy-21-(pyrid-4-ylthio)-5α-pregnan-20-one] |  | 0.023 µM | 98% | 62.5% | 148 % Control | 154 to 156 °C | 
C[C@]12CC[C@@H](O)C[C@H]1CC[C@@H]1[C@@H]2CC[C@]2(C)[C@@H](C(=O)CSCCO)CC[C@@H]12 [3α-hydroxy-21-hydroxyethylthio-5β-pregnan-20-one] |  | 0.141 µM | 71% | 12.5% |  | 150 to 152 °C | 
COC1CCC2C3CCC4CC(O)(C#Cc5ccc(C(C)=O)cc5)CCC4(C)C3CCC12C (stereo not drawn) [3β-(4′-acetylphenylethynyl)-3α-hydroxy-17β-methoxy-5β-androstane] |  | 0.02 µM | 104% | 25% | 129 % Control | 189 to 191 °C | 
C#CC1(O)CCC2C(CCC3C2CCC2(C)C(OC)CCC32)C1 (stereo not drawn) [3β-Ethynyl-3α-hydroxy-17β-methoxy-19-nor-5β-androstane] |  | 0.056 µM | 107% |  | 158 % Control | 152 to 154 °C | Loss-of-Righting Reflex (%) (loss-of-righting reflex; 50% hpbcd, 10 mg/kg): 100%
C[C@H](O)[C@H]1CC[C@H]2[C@@H]3CC[C@H]4C[C@H](O)CC[C@]4(C)[C@H]3CC[C@]12C [5α-pregnan-3α,20-diol, 5α-pregnan-3α,20α-diol] | 6% |  |  |  |  |  | % of Inhibition [1]: 0%; % of Inhibition (Estrogen Receptors): 0%
CC(O)C1CCC2C3CCC4CC(O)CCC4(C)C3CCC12C (stereo not drawn) [5β-pregnan-3α,20α-diol] | 0% |  |  |  |  |  | % of Inhibition [1]: 0%; % of Inhibition (Estrogen Receptors): 8%
CC(=O)[C@H]1CC[C@H]2[C@@H]3CC[C@@H]4C[C@H](O)CC[C@]4(C)[C@H]3CC[C@]12C [5β-pregnan-3α-of-20-one, 5β-pregnan-3α-ol-20 -one] | 9% |  |  |  |  |  | 
CCC(=O)[C@@]1(C)CC[C@H]2[C@@H]3CCC4=CC(=O)CCC4=C3CC[C@@]21C [Example R5020] | 100% |  |  |  |  |  | 
